Our source for the IC50 values is patent US4828849A, “Surfactant inhibition of dental plaque” (Warner-Lambert Company, priority 1988, dated 1989).

Assay [1] concerns Streptococcus sanguis G9B, S. mutans Ingbritt and Actinomyces viscosus T14 V. The assay is described as follows: Adherence assay: inhibition of initial adherence of bacteria to saliva-coated hydroxyapatite beads. It counts as cell-based. Conditions: 50% inhibition of bacterial adherence to saliva-coated hydroxyapatite (HA) beads, determined graphically; surfactant dissolved in water; 37° C.; read-out: 50% Inhibition Concentration. An excerpt: S. sanguis G9B adheres well to saliva-coated hydroxyapatite. This attachment, in vivo, occurs within minutes. As plaque matures, the percentage of S. sanguis decreases, but its actual numbers remain high. In vivo and in vitro studies have shown S. sanguis to interact with other oral bacteria including S. mutans and Actinomyces viscosus. S. mutans has also been implicated as a cause of dental caries. Stock cultures were kept both lyophillized and frozen in Brain Heart Infusion Broth (BHI, Difco Laboratories) at -70° C.; the latter being used to inoculate starter cultures. After overnight incubation at 37° C, a 0.5% inoculum was used to inoculate 100 ml of BHI which was subsequently incubated 20 hours at 37° C. The cells were radioactivately labeled by adding tritiated thymidine (methyl-3H) to a final specific activity of 2 μCi/ml. After incubation, the cells were harvested by centrifugation (16,320× g, 15 minutes, 4° C.), washed three times with buffered KCl (2 mM potassium phosphate buffer, 1 mM CaCl2, and 5 mM KCl, pH 6.0) (Ref. 8), and resuspended to a turbidity of 300 Klett units (Klett-Summerson colorimeter; blue, #47 filter). This bacterial stock cell suspension was then diluted with buffered KCl to produce a series of cell suspensions ranging from 1.6 to 300 Klett units. Duplicate 50 ul aliquots of each cell suspension were counted in Aquasol-2 to determine their specific activities.
A. viscosus T14 V was grown for 48 hours at 37° C. under anaerobic conditions in tryptic soy broth (TSB) containing glucose.
Whole, paraffin-stimulated saliva was collected into ice-chilled tubes and clarified by centrifugation ([…], 15 minutes, 4° C.). The supernatant fluids were removed and aliquots were stored frozen at -20° C. until used. A pool of saliva from several individuals was used routinely; and was collected after a 10 hour fast with no food or oral hygiene on the morning of collection.
Spheroidal hydroxyapatite beads (manufactured by BDH Chemicals, Poole, England and obtained from Gallard-Schlessinger Co., Carle Place, NY) were distributed into a 12×75 mm polystyrene test tube (Walter Sarstedt, Inc., Princeton, N.J.) and mixed with either 1 ml of saliva or buffered KCl for 1.5 hours at ambient temperature with rotation (20 rpm). Each tube contained 40±2 mg of HA beads, distributed using a calibrated stainless steel ladle.
The cells were radioactively labelled by addition of 1.5 μCi/ml methyl-^3 H thymidine to the cell suspension media. The hydroxyapatite (HA) beads were coated with either a surfactant or a control or saliva and rotated for 30 minutes at ambient temperature. The excess agent or saliva was removed by washing with buffer. Radioactively-labelled cells suspended in either buffer or varying concentrations of the surfactant were added to the beads. The beads and cells were incubated at 37° C., 10 minutes for the streptococcal strains and 15 minutes for the actinomycete, after which the beads were washed to remove the unbound cells and the radioactivity bound to them was determined by scintillation counting. S. mutans Ingbritt was also assayed for sucrose-mediated adherence by addition of 1% sucrose to the cells and surfactant mixture. The concentration to effect 50% inhibition of bacterial adherence to the HA beads was determined graphically.
Several surfactant agents according to the invention dissolved in water were employed in the assay.

For a further assay, the target named is glucosyl transferase. The experiment in a line: Assay for the inhibition of glucosyl transferase activity (14C-sucrose incorporation into glucan). Format: biochemical. Conditions: 50% inhibition of glucosyl transferase activity; 0.05M sodium acetate buffer, pH 5.5, 37° C.; read-out: 50% Inhibition Concentration. How it is done:
An assay for the inhibition of glucosyl transferase activity was developed wherein the enzyme was incubated for 10 minutes with varying concentrations of the surfactant in 0.05M sodium acetate buffer, pH 5.5 at 37° C., with agitation. The reaction was then started by adding the remainder of the assay mixture (to a final volume of 450 mcl) consisting of: 2.5 μCi uniformly-labelled 14C -sucrose, 1% unlabelled sucrose, sodium fluoride and Dextran T10 in acetate buffer. Samples were removed at timed intervals, spotted to filters and the filters were treated with methanol. Radioactivity incorporated into glucan was plotted versus time as compared to a control preparation. By this procedure the concentration of test reagent necessary to achieve 50% inhibition of glucosyl transferase activity was determined.

pIC50: −log10 of the molar value. Counter-ions that a name gives are not always drawn.

`CCCCCCCCCCCCCCCC(=O)N(C)CCS(=O)(=O)O` [Surfactant 1, N--methyl-N--palmitoyltaurine, sodium salt]: the pIC50 in assay [1] was 3.60; on glucosyl transferase, 3.00. For the compound `CCCCCCCC/C=C\CCCCCCCC(=O)N(C)CCS(=O)(=O)O` [Surfactant 2, N--methyl-N--oleolytaurine sodium salt], the pIC50 in assay [1] is 3.46; at glucosyl transferase, 3.00. Take “Cocamidopropylhydroxysultaine [Surfactant 4]”: the pIC50 in assay [1] is 1.82. For “Cocamidopropylhydroxysultaine, potassium salt [Surfactant 5]”, in assay [1], the pIC50 is 1.60. For “Cocoylisethionate, sodium salt [Surfactant 6]”, the pIC50 in assay [1] is 4.00. For “N--methyl-N--cocoyltaurine sodium salt [Surfactant 3]”, the pIC50 in assay [1] was 3.52; at glucosyl transferase, 3.00.
